Laboratory results taken from patent US20180256673A1, “METHODS FOR TREATING FUNGAL INFECTIONS” (priority 2015, published 2018).
Values after ≈ are worked out from the molar mass of the structure shown. Starred links: 1 amine or outer side, 2 acyl side, 3 side chain; linkers in the order of their positions; H or OH if unused. Positions of bridges follow the written chain, without caps; N, C: chain ends. Non-standard residues stand in square brackets, D forms with d. Residues, ends and D or L forms follow the SMILES beside them. *: point of attachment. Orn(4R-OH,5R-OCH2CH2NMe3+) = C[N+](C)(C)CCO[C@@H](N[*:3])[C@H](O)C[C@H](N[*:1])C(=O)[*:2]; hTyr(3S-OH,4S-OH,3'-OSO3H) = N[C@H](C(=O)O)[C@H](O)[C@@H](O)c1ccc(O)c(OS(=O)(=O)O)c1; pTerphenylCO(4''-OnC5H11) = CCCCCOc1ccc(-c2ccc(-c3ccc(C(=O)*)cc3)cc2)cc1; Orn(4R-OH,5R-OH) = O=C([C@H](C[C@@H](O)[C@@H](O)N[*:3])N[*:1])[*:2]; hTyr(3S-OH,4S-OH) = N[C@H](C(=O)O)[C@H](O)[C@@H](O)c1ccc(O)cc1; Pro(3S-OH,4S-Me) = C[C@H]1CN[C@H](C(=O)O)[C@H]1O; X1 = CCCCCOc1ccc(-c2cc(-c3ccc(C(=O)*)cc3)no2)cc1; Gln(3R-OH) = NC(=O)C[C@@H](O)[C@H](N)C(=O)O; Hyp = O=C(O)[C@@H]1C[C@@H](O)CN1

Columns and labels:
C. albicans = assay: Mutant prevention concentration (MPC) determination; assay type: cell-based, Candida albicans; details: wild-type isolates; 24 hr, ~1×10^7 CFU/mL
[1] = tested on: 1,3-β-D-glucan synthase from C. glabrata; assay: Glucan synthase (GS) inhibition assay; details: for IC50: DPL50, WT; for GS activity after treatment with a high dose: F659del mutant GS, 10,000 ng/mL
[2] = tested on: 1,3-β-D-glucan synthase from C. albicans; assay: Glucan synthase (GS) inhibition assay
C. dubliniensis = assay: Antifungal susceptibility testing (CLSI M27-S4), WT and echinocandin-resistant isolates; details: 24 hr
Method: (§1) Antifungal susceptibility testing. Antifungal susceptibility testing was performed in triplicate for a collection of 95 Candida strains (20 C. albicans, 20 C. glabrata, 2 C. dubliniensis, 15 C. krusei, 19 C. parapsilosis, and 19 C. tropicalis) that included 30 isolates showing an echinocandin resistance (ER) phenotype (caspofungin-resistant) in accordance with the guidelines described in the Clinical and Laboratory Standards Institute (CLSI) document M27-S4. […] Stock solutions of the drugs were kept at −86° C.

C. glabrata [3] = assay: Mutant prevention concentration (MPC) determination; assay type: cell-based, Candida glabrata; details: wild-type isolates; 24 hr, ~1×10^7 CFU/mL
C. krusei = assay: Antifungal susceptibility testing (CLSI M27-S4), WT and echinocandin-resistant isolates; details: 24 hr
Method: as §1

[4] = tested on: C. albicans ATCC 90028 and DPL22; assay: MIC of strains used in mouse study (Table 3); details: Candida albicans
C. tropicalis = assay: Antifungal susceptibility testing (CLSI M27-S4), WT and echinocandin-resistant isolates; details: 24 hr
Method: as §1

C. glabrata [5] = assay: as above; details: for % of ER isolates with an MIC: C. glabrata ER isolates (n=11); for MIC median (range): 24 hr
Method: as §1

[6] = tested on: C. tropicalis CTO2, MMX 7255, MMX 7525; assay: Time-kill assay in vagina-simulative medium pH 4.0 (Table 18); assay type: cell-based, Candida tropicalis
[7] = tested on: C. glabrata CG01, ATCC 200918, MMX 7070; assay: Time-kill assay in vagina-simulative medium pH 4.0 (Table 17); assay type: cell-based, Candida glabrata
[8] = tested on: C. parapsilosis CP02, CP01, MMX 7370; assay: Time-kill assay in vagina-simulative medium pH 4.0 (Table 19); assay type: cell-based, Candida parapsilosis
[9] = tested on: azole-resistant Candida albicans (R357); assay: Disseminated infection model in neutropenic ICR mice, kidney fungal counts (Example 10, Tables 22-23); assay type: in vivo; details: for antimicrobial effect versus vehicle (one-way ANOVA, Dunnett's test): 48 and 72 hr after infection, Compound 1 3, 10, 30 mg/kg IP, amphotericin B 1 and 3 mg/kg IV, fluconazole 20 mg/kg PO; for reduction in colony counts compared to the vehicle control group: kidney, 20 mg/kg PO once
[10] = tested on: C. albicans ATCC 44858, DPL001, R357; assay: Time-kill assay in vagina-simulative medium pH 4.0 (Table 16); assay type: cell-based, Candida albicans
C. parapsilosis CP02 = assay: Broth microdilution MIC (CLSI), Examples 3 and 4; details: Lodderomyces parapsilosis, CP02, 24 h, read-out: Broth MIC
Method: Antifungal susceptibility testing. Candida strains were cultured aerobically at 35° C. on SDA plates or in RPMI 1640 broth (pH 7.0). […] MIC assays were performed in triplicate.

[11] = tested on: Candida albicans (Strain R303); assay: MIC of dose-fractionation strain
[12] = Modeling of total plasma concentrations versus MPC; details: IV administration of 50 mg; calculated by modeling of pharmacokinetic data
[13] = Pharmacokinetic-pharmacodynamic analyses, PK model free-drug plasma exposures; set-up: species or system mouse
Method: Pharmacokinetic-Pharmacodynamic Analyses. Using the data collected from the PK study, a PK model was developed in S-ADAPT. Using the developed PK model, concentration-time profiles and AUC0-168h values were computed for each dosing regimen administered in the dose-fractionation study. […] Relationships between the change in logio CFU from start of therapy and AUC0-168h were explored.

[14] = tested on: Candida albicans (Strain R303); assay: Dose-fractionation study in neutropenic ICR mice, kidney fungal burden (Table 24); details: 2 mg/kg as a single dose IP; 168 hours
Murine protein binding = assay type: in vitro ADME; details: mouse, plasma
[15] = tested on: Aspergillus fumigatus (ATCC 13073); assay: Neutropenic mouse model of disseminated aspergillosis, survival; assay type: in vivo; details: one dose; Compound 1 2 mg/kg IV or IP, AMB 2 mg/kg IP; 10 days; P<0.05
C. albicans ATCC 44858 = assay: MIC against C. albicans ATCC 44858 at pH 4; assay type: cell-based; details: Candida albicans, ATCC44858, pH 4
[16] = Pharmacokinetic study in healthy ICR mice, single IP dose; details: 1 to 16 mg/kg IP
Method: Pharmacokinetic Study. […] The following doses, at three mice per dose, were studied: 1, 4, and 16 mg/kg.

[17] = Phase 1 dose-escalation trials, pharmacokinetics after IV infusion; assay type: in vivo, human
Method: PK was assessed using plasma and urine samples collected over 21 days. Safety and tolerability were assessed by adverse events (AEs), vital signs, physical exams, electrocardiograms (ECGs), and safety laboratory values up to 21 days after dosing.

[18] = ATCC90028, ATCC 90028, Fks1p WT, Fks2p WT
[19] = ATCC90028, DPL22, Fks1p S645P/S
[20] = IV infusion, healthy human subjects

Structure (SMILES) | MPC (C. albicans) [µg/mL] | IC50 [1] [µg/mL] | GS activity after treatment with a high dose [1] | MIC median (range) (C. dubliniensis; ER (1 isolate)) [µg/mL] | MIC median (range) (C. dubliniensis; WT (1 isolate)) [µg/mL] | MPC (C. glabrata [3]) [µg/mL] | MIC median (range) (C. krusei; ER (4 isolates)) | MIC median (range) (C. krusei; WT (11 isolates)) | MIC [4, 18] [µg/mL] | MIC [4, 19] [µg/mL] | MIC median (range) (C. tropicalis; ER (4 isolates)) | MIC median (range) (C. tropicalis; WT (15 isolates)) | % of ER isolates with an MIC (C. glabrata [5]) [%] | MIC median (range) (C. glabrata [5]; ER (11 isolates)) | MIC median (range) (C. glabrata [5]; WT (9 isolates)) | antimicrobial effect versus vehicle (one-way ANOVA, Dunnett's test) [9] | MIC (C. parapsilosis CP02) [µg/mL] | also measured
CCCCCOc1ccc(-c2cc(-c3ccc(C(=O)N[C@H]4C[C@@H](O)[C@@H](O)NC(=O)[C@@H]5[C@@H](O)[C@@H](C)CN5C(=O)[C@H]([C@H](O)CC(N)=O)NC(=O)[C@H]([C@H](O)[C@@H](O)c5ccc(O)c(OS(=O)(=O)O)c5)NC(=O)[C@@H]5C[C@@H](O)CN5C(=O)[C@H]([C@@H](C)O)NC4=O)cc3)no2)cc1 [MCF, micafungin] (X1-[Orn(4R-OH,5R-OH)]T[Hyp][hTyr(3S-OH,4S-OH,3'-OSO3H)][Gln(3R-OH)][Pro(3S-OH,4S-Me)]; lactam 1-C) | 16 | 0.000447 (≈ 0.000352 µM) | did not exhibit significant reductions in activity | 0.03 (≈ 0.0236 µM) | 0.03 (≈ 0.0236 µM) | 16 | 1.00 (0.03-8) mg/L | 0.12 (0.03-0.25) mg/L | < 0.03 | 0.5 | 2.00 (1-4) mg/L | 0.03 (0.03)^ mg/L | 63 | 0.50 (0.06-4) mg/L | <0.03 (<0.03)^ mg/L | – | – | fold increase in IC50 compared to the WT ([2]; F641S mutant): 100 fold; fold increase in IC50 compared to the WT ([2]; S645P mutant): 144 fold
OC(Cn1cncn1)(Cn1cncn1)c1ccc(F)cc1F [FLU, fluconazole] | – | – | – | – | – | – | – | – | – | – | – | – | – | – | – | not significant | – | Susceptibility to FLU (S/R) ([6]; C. tropicalis CT02): S; Susceptibility to FLU (S/R) ([6]; C. tropicalis MMX 7255): R; Susceptibility to FLU (S/R) ([6]; C. tropicalis MMX 7525): R; Susceptibility to FLU (S/R) ([7]; C. glabrata ATCC 200918): R; Susceptibility to FLU (S/R) ([7]; C. glabrata CG01): S; Susceptibility to FLU (S/R) ([7]; C. glabrata MMX 7070): R; Susceptibility to FLU (S/R) ([8]; C. parapsilosis CP01): R; Susceptibility to FLU (S/R) ([8]; C. parapsilosis CP02): S; Susceptibility to FLU (S/R) ([8]; C. parapsilosis MMX 7370): R; reduction in colony counts compared to the vehicle control group ([9]; 48 hr after infection): 51%; reduction in colony counts compared to the vehicle control group ([9]; 72 hr after infection): 84%; Susceptibility to FLU (S/R) ([10]; C. albicans ATCC 44858): S; Susceptibility to FLU (S/R) ([10]; C. albicans DPL001): R; Susceptibility to FLU (S/R) ([10]; C. albicans R357): R
CCCCCOc1ccc(-c2ccc(-c3ccc(C(=O)N[C@H]4C[C@@H](O)[C@@H](O)NC(=O)[C@@H]5[C@@H](O)[C@@H](C)CN5C(=O)[C@H]([C@@H](C)O)NC(=O)[C@H]([C@H](O)[C@@H](O)c5ccc(O)cc5)NC(=O)[C@@H]5C[C@@H](O)CN5C(=O)[C@H]([C@@H](C)O)NC4=O)cc3)cc2)cc1 [ANID, anidulafungin] ({pTerphenylCO(4''-OnC5H11)}-[Orn(4R-OH,5R-OH)]T[Hyp][hTyr(3S-OH,4S-OH)]T[Pro(3S-OH,4S-Me)]; lactam 1-C) | – | – | – | – | – | – | – | – | – | – | – | – | – | – | – | – | 4 (≈ 3.51 µM) | –
CCCCCOc1ccc(-c2ccc(-c3ccc(C(=O)N[C@H]4C[C@@H](O)[C@@H](OCC[N+](C)(C)C)NC(=O)[C@@H]5[C@@H](O)[C@@H](C)CN5C(=O)[C@H]([C@@H](C)O)NC(=O)[C@H]([C@H](O)[C@@H](O)c5ccc(O)cc5)NC(=O)[C@@H]5C[C@@H](O)CN5C(=O)[C@H]([C@@H](C)O)NC4=O)cc3)cc2)cc1 [Compound 1] ({pTerphenylCO(4''-OnC5H11)}-[Orn(4R-OH,5R-OCH2CH2NMe3+)]T[Hyp][hTyr(3S-OH,4S-OH)]T[Pro(3S-OH,4S-Me)]; lactam 1-C) | 16 | 0.00257 | did not exhibit significant reductions in activity | 0.03 | 0.03 | 16 | 0.50 (<0.03-4) mg/L | 0.03 (<0.03-0.06) mg/L | < 0.03 | 0.5 | 2.00 (0.5-2) mg/L | 0.03 (0.03)^ mg/L | 18 | 1.00 (0.12-4) mg/L | 0.06 (0.03-0.12) mg/L | Significant antimicrobial effects | – | MIC [11]: 0.125 µg/mL; reduction in fungal counts ([9]; 3, 10, and 30 mg/kg IP once, 48 and 72 hr time points): two log reduction; total plasma concentration generated [12]: > 16 µg/mL; Free-drug plasma AUC0-24 ([13]; 2 mg/kg as a single dose): 65.4 ng·h/mL; time free-drug plasma concentrations of single dose remain above those of the daily regimen ([13]; 2 mg/kg total dose): 48 h; time free-drug plasma concentrations of single dose remain above those of the twice weekly regimen ([13]; 2 mg/kg total dose): 84 h; Free-drug plasma AUC0-24 ([13]; 2 mg/kg total, daily regimen): 9.48 ng·h/mL; Free-drug plasma AUC0-24 ([13]; 2 mg/kg total, twice weekly regimen): 30.3 ng·h/mL; log10 CFU reduction from baseline [14]: greater than 2 log10 CFU; fraction unbound (Murine protein binding): 0.009; survival versus vehicle [15]: significantly longer survival than vehicle; MIC (C. albicans ATCC 44858): 0.25 µg/mL; PK linearity over the dose range [16]: linear PK; plasma exposures versus dose ([17]; 50-400 mg IV): dose-proportional plasma exposures; apparent clearance [17, 20]: < 0.3 L/h; urinary excretion [17, 20]: < 1%; half-life ([17]; plasma, IV infusion, healthy human subjects, read-out: half-life (t1/2)): > 80 h
CC[C@H](C)C[C@H](C)CCCCCCCCC(=O)N[C@H]1C[C@@H](O)[C@@H](NCCN)NC(=O)[C@@H]2[C@@H](O)CCN2C(=O)[C@H]([C@H](O)CCN)NC(=O)[C@H]([C@H](O)[C@@H](O)c2ccc(O)cc2)NC(=O)[C@@H]2C[C@@H](O)CN2C(=O)[C@H]([C@@H](C)O)NC1=O [CAS, caspofungin] | – | – | – | – | – | – | – | – | – | – | – | – | – | – | – | – | 0.5 (≈ 0.457 µM) | –
